Reference: patent publication US8394848B2, “Compounds that modulate intracellular calcium” (Calcimedica, Inc., priority 2008, dated 2013)

test system: JR251 or RBL cells; test: Store-operated calcium entry, either JR251 or RBL cells, or both; assay type: cell-based
Summary of the method: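 Orai1/STIM1 stable cells: fluo-4-AM loaded, compound 30 min at RT in Ca2+-free HBSS, then CaCl2 added; IC50 from Peak-Basal FLIPR fluorescence. RBL-2H3 cells: compound 5 min, then thapsigargin (5.5× stock, 5.5 uM) 25 min, then calcium added; IC50 from Upslope (signal 7 s after calcium minus baseline).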

How did the IC50 turn out when `Cc1ccc(-c2csc(NC(=O)c3nc4cc(F)ccc4o3)c2C(=O)O)c(F)c1F` [4-(2,3-difluoro-4-methylphenyl)-2-(5-fluorobenzo[d]oxazole-2-carboxamido)thiophene-3-carboxylic acid] was run?
The IC50 was less than 10 µM.

How did the IC50 turn out when `O=C(Nc1scc(-c2ccc(Cl)cc2)c1C(=O)O)c1nc(C2CC2)cs1` [4-(4-chlorophenyl)-2-(4-cyclopropylthiazole-2-carboxamido)thiophene-3-carboxylic acid] was run?
The IC50 was less than 10 µM.

Which IC50 does the source give for `COc1ccc(-c2csc(NC(=O)c3nc4ccccc4o3)c2C(=O)O)c(Cl)c1` [2-(benzo[d]oxazole-2-carboxamido)-4-(2-chloro-4-methoxyphenyl)thiophene-3-carboxylic acid] here?
The IC50 was less than 10 µM.

For `O=C(Nc1scc(-c2ccc(Cl)cc2)c1C(=O)O)c1nc2cccc(Br)c2o1` [2-(7-bromobenzo[d]oxazole-2-carboxamido)-4-(4-chlorophenyl) thiophene-3-carboxylic acid], which IC50 is on record?
Its IC50 is less than 10 µM.

How did the IC50 turn out when `O=C(Nc1scc(-c2ccc(Cl)cc2)c1C(=O)O)c1ccc2nccn2c1` [4-(4-chlorophenyl)-2-(imidazo[1,2-a]pyridine-6-carboxamido)thiophene-3-carboxylic acid] was run?
The IC50 was less than 10 µM.

For `O=C(CCc1cccc(F)c1)Nc1scc(-c2ccc(Cl)cc2)c1C(=O)O` [4-(4-chlorophenyl)-2-(3-(3-fluorophenyl)propanamido)thiophene-3-carboxylic acid], which IC50 is on record?
Its IC50 is less than 10 µM.

`O=C(Nc1scc(-c2ccc(Br)c(F)c2F)c1C(=O)O)c1ccc2occc2c1` [2-(benzofuran-5-carboxamido)-4-(4-bromo-2,3-difluorophenyl)thiophene-3-carboxylic acid] was tested. Which IC50 did it give?
Its IC50 is less than 10 µM.

For `COc1cccc(CC(=O)Nc2scc(-c3ccc(Cl)c(Cl)c3)c2C(=O)O)c1` [4-(3,4-dichlorophenyl)-2-(2-(3-methoxyphenyl)acetamido)thiophene-3-carboxylic acid], which IC50 is on record?
The IC50 was less than 10 µM.

Which IC50 does the source give for `O=C(Nc1scc(-c2ccc(C(F)(F)F)cc2)c1C(=O)O)c1cccs1` [2-(thiophene-2-carboxamido)-4-(4-(trifluoromethyl)phenyl)thiophene-3-carboxylic acid] here?
The IC50 was less than 10 µM.

`O=C(CCc1ccccc1)Nc1scc(-c2cc3cc(Cl)ccc3o2)c1C(=O)O` [4-(5-chlorobenzofuran-2-yl)-2-(3-phenylpropanamido)thiophene-3-carboxylic acid] was tested. Which IC50 did it give?
The IC50 was less than 10 µM.

How did the IC50 turn out when `COc1cc(-c2csc(NC(=O)c3nc4ccccc4o3)c2C(=O)O)ccc1Cl` [2-(benzo[d]oxazole-2-carboxamido)-4-(4-chloro-3-methoxyphenyl)thiophene-3-carboxylic acid] was run?
The IC50 was less than 10 µM.

Which IC50 does the source give for `O=C(CCc1ccc(Cl)cc1)Nc1scc(-c2ccc(Cl)cc2)c1C(=O)O` [4-(4-chlorophenyl)-2-(3-(4-chlorophenyl)propanamido)thiophene-3-carboxylic acid] here?
The IC50 was less than 10 µM.

`COc1cccc2c1CC(C(=O)Nc1scc(-c3ccc(Br)cc3)c1C(=O)O)CC2` (stereo not shown) [4-(4-bromophenyl)-2-(8-methoxy-1,2,3,4-tetrahydronaphthalene-2-carboxamido)thiophene-3-carboxylic acid] was tested. Which IC50 did it give?
The IC50 was less than 10 µM.

`O=C(Nc1scc(-c2ccc(Cl)cc2)c1C(=O)O)c1cc2c(Cl)cccn2n1` [4-(4-chlorophenyl)-2-(4-chloropyrazolo[1,5-a]pyridine-2-carboxamido)thiophene-3-carboxylic acid] was tested. Which IC50 did it give?
Its IC50 is less than 10 µM.

With `O=C(Nc1scc(-c2ccc(Cl)cc2)c1C(=O)O)c1cnn(-c2ccccc2)c1` [4-(4-chlorophenyl)-2-(1-phenyl-1H-pyrazole-4-carboxamido)thiophene-3-carboxylic acid] as the compound, how does the IC50 read?
The IC50 was less than 10 µM.

`COc1cccc(C(=O)Nc2scc(-c3ccc(Cl)cc3)c2C(=O)O)n1` [4-(4-chlorophenyl)-2-(6-methoxypicolinamido)thiophene-3-carboxylic acid] was tested. Which IC50 did it give?
Its IC50 is less than 10 µM.

Which IC50 does the source give for `O=C(Nc1scc(-c2ccc(Cl)cc2)c1C(=O)O)c1ccc2ncsc2c1` [2-(benzo[d]thiazole-6-carboxamido)-4-(4-chlorophenyl)thiophene-3-carboxylic acid] here?
The IC50 was less than 10 µM.

Which IC50 does the source give for `O=C(Nc1scc(-c2ccc(Br)cc2)c1C(=O)O)OCc1ccccc1Cl` [4-(4-bromophenyl)-2-((2-chlorobenzyloxy)carbonylamino)thiophene-3-carboxylic acid] here?
Its IC50 is less than 10 µM.

For `O=C(Nc1scc(-c2cc3cccc(O)c3o2)c1C(=O)O)c1ccc2snnc2c1` [2-(benzo[d][1,2,3]thiadiazole-5-carboxamido)-4-(7-hydroxybenzofuran-2-yl)thiophene-3-carboxylic acid], which IC50 is on record?
The IC50 was less than 10 µM.

`O=C(Nc1scc(-c2ccc(Br)cc2)c1C(=O)O)c1nc2ccccc2o1` [2-(benzo[d]oxazole-2-carboxamido)-4-(4-bromophenyl)thiophene-3-carboxylic acid] was tested. Which IC50 did it give?
Its IC50 is less than 10 µM.

Which IC50 does the source give for `O=C(CCc1ccccc1)Nc1scc(-c2ccc(Cl)cc2Cl)c1C(=O)O` [4-(2,4-dichlorophenyl)-2-(3-phenylpropanamido)thiophene-3-carboxylic acid] here?
The IC50 was less than 10 µM.

With `Cc1ccc(-c2csc(NC(=O)c3scc(S(=O)(=O)C(C)C)c3Cl)c2C(=O)O)cc1` [2-(3-chloro-4-(isopropylsulfonyl)thiophene-2-carboxamido)-4-p-tolylthiophene-3-carboxylic acid] as the compound, how does the IC50 read?
The IC50 was less than 10 µM.

How did the IC50 turn out when `N#Cc1cc(-c2csc(NC(=O)c3nc4ccccc4o3)c2C(=O)O)ccc1F` [2-(benzo[d]oxazole-2-carboxamido)-4-(3-cyano-4-fluorophenyl)thiophene-3-carboxylic acid] was run?
The IC50 was less than 10 µM.

With `O=C(COc1ccccc1)Nc1scc(-c2ccc(Cl)cc2)c1C(=O)O` [4-(4-chlorophenyl)-2-(2-phenoxyacetamido)thiophene-3-carboxylic acid] as the compound, how does the IC50 read?
Its IC50 is less than 10 µM.

For `Cc1cnc(C(=O)Nc2scc(-c3ccc(Cl)cc3)c2C(=O)O)cn1` [4-(4-chlorophenyl)-2-(5-methylpyrazine-2-carboxamido)thiophene-3-carboxylic acid], which IC50 is on record?
Its IC50 is less than 10 µM.

`O=C(Nc1scc(-c2ccc(Br)cc2)c1C(=O)O)c1ccnnc1` [4-(4-bromophenyl)-2-(pyridazine-4-carboxamido)thiophene-3-carboxylic acid] was tested. Which IC50 did it give?
Its IC50 is less than 10 µM.

Which IC50 does the source give for `O=C(CCc1cccc(F)c1)Nc1scc(-c2ccc(Br)cc2)c1C(=O)O` [4-(4-bromophenyl)-2-(3-(3-fluorophenyl)propanamido)thiophene-3-carboxylic acid] here?
Its IC50 is less than 10 µM.

With `O=C(Nc1scc(-c2ccc(Cl)cc2)c1C(=O)O)c1ncc(C(F)(F)F)cn1` [4-(4-chlorophenyl)-2-(5-(trifluoromethyl)pyrimidine-2-carboxamido)thiophene-3-carboxylic acid] as the compound, how does the IC50 read?
Its IC50 is less than 10 µM.

For `O=C(CCCc1ccccc1)Nc1scc(-c2ccc(Cl)cc2)c1C(=O)O` [4-(4-chlorophenyl)-2-(4-phenylbutanamido)thiophene-3-carboxylic acid], which IC50 is on record?
Its IC50 is less than 10 µM.

`Cc1ccc(-c2csc(NC(=O)c3nc4ccccc4s3)c2C(=O)O)cc1` [2-(benzo[d]thiazole-2-carboxamido)-4-p-tolylthiophene-3-carboxylic acid] was tested. Which IC50 did it give?
Its IC50 is less than 10 µM.

Which IC50 does the source give for `O=C(Nc1scc(-c2cc3cccc(O)c3o2)c1C(=O)O)c1nc2ccccc2o1` [2-(benzo[d]oxazole-2-carboxamido)-4-(7-hydroxybenzofuran-2-yl)thiophene-3-carboxylic acid] here?
Its IC50 is less than 10 µM.

With `O=C(Nc1scc(-c2ccc(Cl)cc2)c1C(=O)O)c1nc2c(O)cccc2o1` [4-(4-chlorophenyl)-2-(4-hydroxybenzo[d]oxazole-2-carboxamido)thiophene-3-carboxylic acid] as the compound, how does the IC50 read?
The IC50 was less than 10 µM.

Which IC50 does the source give for `O=C(Nc1scc(-c2ccc(Cl)cc2)c1C(=O)O)c1nc2ccc([N+](=O)[O-])cc2s1` [4-(4-chlorophenyl)-2-(6-nitrobenzo[d]thiazole-2-carboxamido)thiophene-3-carboxylic acid] here?
The IC50 was less than 10 µM.

With `COc1ccc(-c2csc(NC(=O)c3cc4ccccc4o3)c2C(=O)O)c(F)c1F` [2-(benzofuran-2-carboxamido)-4-(2,3-difluoro-4-methoxyphenyl)thiophene-3-carboxylic acid] as the compound, how does the IC50 read?
The IC50 was less than 10 µM.

For `COc1c(F)ccc(-c2csc(NC(=O)c3cc4ccccc4o3)c2C(=O)O)c1F` [2-(benzofuran-2-carboxamido)-4-(2,4-difluoro-3-methoxyphenyl)thiophene-3-carboxylic acid], which IC50 is on record?
The IC50 was less than 10 µM.

For `Cc1nn(C)c2sc(C(=O)Nc3scc(-c4ccc(Br)cc4)c3C(=O)O)cc12` [4-(4-bromophenyl)-2-(1,3-dimethyl-1H-thieno[2,3-c]pyrazole-5-carboxamido)thiophene-3-carboxylic acid], which IC50 is on record?
Its IC50 is less than 10 µM.

With `O=C(Nc1scc(-c2ccc3c(c2)CCO3)c1C(=O)O)c1nc2ccccc2o1` [2-(benzo[d]oxazole-2-carboxamido)-4-(2,3-dihydrobenzofuran-5-yl)thiophene-3-carboxylic acid] as the compound, how does the IC50 read?
The IC50 was less than 10 µM.

For `Cc1cc(C(=O)Nc2scc(-c3ccc(Br)cc3)c2C(=O)O)cc(O)n1` [4-(4-bromophenyl)-2-(2-hydroxy-6-methylisonicotinamido)thiophene-3-carboxylic acid], which IC50 is on record?
The IC50 was less than 10 µM.

With `Cc1ccc(-c2csc(NC(=O)c3ccc4occc4c3)c2C(=O)O)c(F)c1F` [2-(benzofuran-5-carboxamido)-4-(2,3-difluoro-4-methylphenyl)thiophene-3-carboxylic acid] as the compound, how does the IC50 read?
Its IC50 is less than 10 µM.

`N#C/C(=C\c1ccccc1)C(=O)Nc1scc(-c2ccc(Cl)cc2)c1C(=O)O` [(E)-4-(4-chlorophenyl)-2-(2-cyano-3-phenylacrylamido)thiophene-3-carboxylic acid] was tested. Which IC50 did it give?
The IC50 was less than 10 µM.

`O=C(O)c1c(-c2ccc(Cl)cc2)csc1NC(=O)C(F)Cc1c(F)cccc1Cl` (stereo not shown) [2-(3-(2-chloro-6-fluorophenyl)-2-fluoropropanamido)-4-(4-chlorophenyl)thiophene-3-carboxylic acid] was tested. Which IC50 did it give?
Its IC50 is less than 10 µM.

For `O=C(Nc1cccc(F)c1)Nc1scc(-c2ccc(Br)cc2)c1C(=O)O` [4-(4-bromophenyl)-2-(3-(3-fluorophenyl)ureido)thiophene-3-carboxylic acid], which IC50 is on record?
The IC50 was less than 10 µM.

`O=C(Nc1scc(-c2ccc(Cl)cc2)c1C(=O)O)c1cc2sccc2s1` [4-(4-chlorophenyl)-2-(thieno[3,2-b]thiophene-2-carboxamido)thiophene-3-carboxylic acid] was tested. Which IC50 did it give?
Its IC50 is less than 10 µM.
